Test results published in PubChem BioAssay (NCI).
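Five concentrations, 48 hours, 96-well plates. GI50 = concentration required for 50% inhibition of growth. TGI is the concentration that stops growth completely.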

Tests used:
Test in all cases: growth of human tumour cells (NCI), 48 h
786-0 renal = test system: 786-0 renal
A498 renal = test system: A498 renal
A549 NSCLC = test system: A549 NSCLC
ACHN renal = test system: ACHN renal
BT-549 breast = test system: BT-549 breast
CAKI-1 renal = test system: CAKI-1 renal
CCRF-CEM leukemia = test system: CCRF-CEM leukemia
COLO 205 colon = test system: COLO 205 colon
DU-145 prostate = test system: DU-145 prostate
EKVX NSCLC = test system: EKVX NSCLC
HCC-2998 colon = test system: HCC-2998 colon
HCT-116 colon = test system: HCT-116 colon
HCT-15 colon = test system: HCT-15 colon
HL-60(TB) leukemia = test system: HL-60(TB) leukemia
HOP-62 NSCLC = test system: HOP-62 NSCLC
HOP-92 NSCLC = test system: HOP-92 NSCLC
HS 578T breast = test system: HS 578T breast
HT29 colon = test system: HT29 colon
IGROV1 ovarian = test system: IGROV1 ovarian
K-562 leukemia = test system: K-562 leukemia
KM12 colon = test system: KM12 colon
LOX IMVI melanoma = test system: LOX IMVI melanoma
M14 melanoma = test system: M14 melanoma
MALME-3M melanoma = test system: MALME-3M melanoma
MCF7 breast = test system: MCF7 breast
MDA-MB-231 breast = test system: MDA-MB-231 breast
MDA-MB-435 = test system: MDA-MB-435
MOLT-4 leukemia = test system: MOLT-4 leukemia
NCI-H226 lung = test system: NCI-H226 lung
NCI-H23 lung = test system: NCI-H23 lung
NCI-H460 lung = test system: NCI-H460 lung
NCI-H522 lung = test system: NCI-H522 lung
NCI/ADR-RES ovarian = test system: NCI/ADR-RES ovarian
OVCAR-3 ovarian = test system: OVCAR-3 ovarian
OVCAR-4 ovarian = test system: OVCAR-4 ovarian
OVCAR-5 ovarian = test system: OVCAR-5 ovarian
OVCAR-8 ovarian = test system: OVCAR-8 ovarian
PC-3 prostate = test system: PC-3 prostate
RPMI-8226 leukemia = test system: RPMI-8226 leukemia
RXF 393 renal = test system: RXF 393 renal
SF-268 CNS = test system: SF-268 CNS
SF-295 CNS = test system: SF-295 CNS
SF-539 CNS = test system: SF-539 CNS
SK-MEL-2 melanoma = test system: SK-MEL-2 melanoma
SK-MEL-28 melanoma = test system: SK-MEL-28 melanoma
SK-MEL-5 melanoma = test system: SK-MEL-5 melanoma
SK-OV-3 ovarian = test system: SK-OV-3 ovarian
SN12C renal = test system: SN12C renal
SNB-19 CNS = test system: SNB-19 CNS
SR leukemia = test system: SR leukemia
SW-620 colon = test system: SW-620 colon
T-47D breast = test system: T-47D breast
TK-10 renal = test system: TK-10 renal
U251 CNS = test system: U251 CNS
UACC-257 melanoma = test system: UACC-257 melanoma
UACC-62 melanoma = test system: UACC-62 melanoma
UO-31 renal = test system: UO-31 renal

C=C1C(=O)O[C@H]2[C@H]1CC/C(COC(=O)NCc1ccc(Cn3c(=O)sn(CCCC)c3=O)cc1)=C\CC[C@@]1(C)O[C@@H]21 was tested, and the GI50 (786-0 renal) was 2 µM, the TGI (786-0 renal) was 4.02 µM and the GI50 (A498 renal) was 3.28 µM. For the same compound, the TGI (A498 renal) was 14.1 µM, the GI50 (A549 NSCLC) was 13.4 µM and the TGI (A549 NSCLC) was 28.7 µM. For the same compound, the GI50 (ACHN renal) was 1.67 µM, the TGI (ACHN renal) was 3.08 µM and the GI50 (BT-549 breast) was 1.56 µM. For the same compound, the TGI (BT-549 breast) was 3.03 µM, the GI50 (CAKI-1 renal) was 1.64 µM and the TGI (CAKI-1 renal) was 3.24 µM. The GI50 (CCRF-CEM leukemia) was 0.657 µM, the TGI (CCRF-CEM leukemia) was 4.56 µM and the GI50 (COLO 205 colon) was 2 µM. For the same compound, the TGI (COLO 205 colon) was 3.88 µM, the GI50 (DU-145 prostate) was 1.81 µM and the TGI (DU-145 prostate) was 3.36 µM. The GI50 (EKVX NSCLC) was 3.32 µM, the TGI (EKVX NSCLC) was 9.83 µM and the GI50 (HCC-2998 colon) was 4.1 µM. It also gave a TGI (HCC-2998 colon) of 13.4 µM, a GI50 (HCT-116 colon) of 1.36 µM and a TGI (HCT-116 colon) of 2.78 µM. It also gave a GI50 (HCT-15 colon) of 2.02 µM, a TGI (HCT-15 colon) of 3.76 µM and a GI50 (HL-60(TB) leukemia) of 1.81 µM. The TGI (HL-60(TB) leukemia) was 5.42 µM, the GI50 (HOP-62 NSCLC) was 12.7 µM and the TGI (HOP-62 NSCLC) was 26.6 µM. The GI50 (HOP-92 NSCLC) was 1.29 µM, the TGI (HOP-92 NSCLC) was 2.72 µM and the GI50 (HS 578T breast) was 3.24 µM. For the same compound, the TGI (HS 578T breast) was 12.7 µM, the GI50 (HT29 colon) was 2.08 µM and the TGI (HT29 colon) was 4.18 µM. The GI50 (IGROV1 ovarian) was 1.83 µM, the TGI (IGROV1 ovarian) was 3.93 µM and the GI50 (K-562 leukemia) was 0.891 µM. It also gave a TGI (K-562 leukemia) of over 100 µM, a GI50 (KM12 colon) of 14.8 µM and a TGI (KM12 colon) of 29.4 µM. The GI50 (LOX IMVI melanoma) was 1.65 µM, the TGI (LOX IMVI melanoma) was 3.08 µM and the GI50 (M14 melanoma) was 1.45 µM. It also gave a TGI (M14 melanoma) of 2.97 µM, a GI50 (MALME-3M melanoma) of 1.6 µM and a TGI (MALME-3M melanoma) of 3.32 µM. For the same compound, the GI50 (MCF7 breast) was 1.87 µM, the TGI (MCF7 breast) was 3.91 µM and the GI50 (MDA-MB-231 breast) was 1.8 µM. It also gave a TGI (MDA-MB-231 breast) of 3.57 µM, a GI50 (MDA-MB-435) of 1.65 µM and a TGI (MDA-MB-435) of 3.22 µM. The GI50 (MOLT-4 leukemia) was 1.55 µM, the TGI (MOLT-4 leukemia) was 5.73 µM and the GI50 (NCI-H226 lung) was 11.9 µM. For the same compound, the TGI (NCI-H226 lung) was 29.8 µM, the GI50 (NCI-H23 lung) was 4.19 µM and the TGI (NCI-H23 lung) was 15.3 µM. It also gave a GI50 (NCI-H460 lung) of 5.92 µM, a TGI (NCI-H460 lung) of 19.6 µM and a GI50 (NCI-H522 lung) of 1.19 µM. The TGI (NCI-H522 lung) was 2.88 µM, the GI50 (NCI/ADR-RES ovarian) was 27.8 µM and the TGI (NCI/ADR-RES ovarian) was 97.9 µM. The GI50 (OVCAR-3 ovarian) was 1.59 µM, the TGI (OVCAR-3 ovarian) was 2.97 µM and the GI50 (OVCAR-4 ovarian) was 1.52 µM. For the same compound, the TGI (OVCAR-4 ovarian) was 3.05 µM, the GI50 (OVCAR-5 ovarian) was 1.93 µM and the TGI (OVCAR-5 ovarian) was 4.06 µM. It also gave a GI50 (OVCAR-8 ovarian) of 3.64 µM, a TGI (OVCAR-8 ovarian) of 15.2 µM and a GI50 (PC-3 prostate) of 1.75 µM. For the same compound, the TGI (PC-3 prostate) was 3.56 µM, the GI50 (RPMI-8226 leukemia) was 1.48 µM and the TGI (RPMI-8226 leukemia) was 4.07 µM. For the same compound, the GI50 (RXF 393 renal) was 1.57 µM, the TGI (RXF 393 renal) was 3.04 µM and the GI50 (SF-268 CNS) was 4.28 µM. The TGI (SF-268 CNS) was 17.2 µM, the GI50 (SF-295 CNS) was 15.3 µM and the TGI (SF-295 CNS) was 29 µM. It also gave a GI50 (SF-539 CNS) of 1.68 µM, a TGI (SF-539 CNS) of 3.24 µM and a GI50 (SK-MEL-2 melanoma) of 4.52 µM. The TGI (SK-MEL-2 melanoma) was 17 µM, the GI50 (SK-MEL-28 melanoma) was 1.8 µM and the TGI (SK-MEL-28 melanoma) was 3.36 µM. For the same compound, the GI50 (SK-MEL-5 melanoma) was 3.18 µM, the TGI (SK-MEL-5 melanoma) was 9.48 µM and the GI50 (SK-OV-3 ovarian) was 15.2 µM. For the same compound, the TGI (SK-OV-3 ovarian) was 28.7 µM, the GI50 (SN12C renal) was 1.73 µM and the TGI (SN12C renal) was 3.93 µM. It also gave a GI50 (SNB-19 CNS) of 6.63 µM, a TGI (SNB-19 CNS) of 19.6 µM and a GI50 (SR leukemia) of 0.407 µM. For the same compound, the TGI (SR leukemia) was 5.39 µM, the GI50 (SW-620 colon) was 1.51 µM and the TGI (SW-620 colon) was 3.09 µM. The GI50 (T-47D breast) was 2.04 µM, the TGI (T-47D breast) was 4.83 µM and the GI50 (TK-10 renal) was 1.81 µM. The TGI (TK-10 renal) was 3.59 µM, the GI50 (U251 CNS) was 4.15 µM and the TGI (U251 CNS) was 15.5 µM. The GI50 (UACC-257 melanoma) was 2.03 µM, the TGI (UACC-257 melanoma) was 4.93 µM and the GI50 (UACC-62 melanoma) was 1.62 µM. For the same compound, the TGI (UACC-62 melanoma) was 3.22 µM, the GI50 (UO-31 renal) was 1.45 µM and the TGI (UO-31 renal) was 2.78 µM.
